# According to US7732604B2, “Triazolopyrazine derivatives” (Pfizer Inc., priority 2006, dated 2010):
# Target: T1, HGFR (Homo sapiens, UniProt P08581)
# T1 construct: purchased Upstate 14-526
# Assay: HGFR continuous-coupled spectrophotometric assay (tyrosine kinase activity on Met-2 substrate peptide)
# Type: biochemical
# Settings: HGFR 50 nM, Met-2 peptide 0.5 mM, ATP 300 μM, 37° C., absorbance 340 nm; read-out: Ki
# T1 sequence (P08581 974-1390 limits assumed): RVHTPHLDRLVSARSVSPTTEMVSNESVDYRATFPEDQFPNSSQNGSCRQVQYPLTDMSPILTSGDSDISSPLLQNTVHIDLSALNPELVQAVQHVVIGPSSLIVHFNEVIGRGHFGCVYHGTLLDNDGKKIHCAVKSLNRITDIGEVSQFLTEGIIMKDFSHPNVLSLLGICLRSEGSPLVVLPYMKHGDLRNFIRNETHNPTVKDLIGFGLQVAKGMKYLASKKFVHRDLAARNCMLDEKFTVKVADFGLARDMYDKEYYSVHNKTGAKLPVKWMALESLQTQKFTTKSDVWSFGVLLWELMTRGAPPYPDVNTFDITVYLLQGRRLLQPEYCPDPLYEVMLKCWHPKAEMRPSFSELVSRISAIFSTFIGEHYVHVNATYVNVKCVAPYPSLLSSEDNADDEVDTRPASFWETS
row,Compound,Ki [nM]
1,"O=c1[nH]cccc1CNc1cnc2nnn(Cc3ccc4ncccc4c3)c2n1 [Example 115, 3-({[1-(quinolin-6-yl-methyl)-1H-[1,2,3]tri-azolo[4,5-b]pyra-zin-6-yl]ami-no}meth-yl)pyridin-2(1H)-one]",12
2,"OC[C@@H]1CC=CC[C@@H]1Nc1cnc2nnn(Cc3ccc4ncccc4c3)c2n1 [Example 119, [(1S,6R)-6-{[1-(quino-lin-6-yl-methyl)-1H-[1,2,3]tri-azolo[4,5-b]pyra-zin-6-yl]ami-no}cyclohex-3-en-1-yl]meth-anol]",30
3,"CN(C)C(=O)CCNc1cnc2nnn(Cc3ccc4ncccc4c3)c2n1 [Example 121, N,N-dimethyl-N~3~-[1-(quino-lin-6-yl-methyl)-1H-[1,2,3]tri-azolo[4,5-b]pyra-zin-6-yl]-beta-alaninamide]",22
4,"c1cnc2ccc(Cn3nnc4ncc(NCc5cnn6cccnc56)nc43)cc2c1 [Example 122, N-(pyrazolo[15-a]pyrimi-din-3-yl-methyl)-1-(quino-lin-6-yl-methyl)-1H-[1,2,3]tri-azolo[4,5-b]pyra-zin-6-amine]",25
5,"c1cnc2ccc(Cn3nnc4ncc(NCc5cc(C6CC6)[nH]n5)nc43)cc2c1 [Example 124, N-[(5-cyclo-propyl-1H-pyra-zol-3-yl)meth-yl]-1-(quino-lin-6-yl-methyl)-1H-[1,2,3]tri-azolo[4,5-b]pyra-zin-6-amine]",35
6,CNC(=O)CCNc1cnc2nnn(Cc3ccc4ncccc4c3)c2n1 [Example 125],15
7,"OC[C@@H]1C[C@H]1CNc1cnc2nnn(Cc3ccc4ncccc4c3)c2n1 [Example 127, [(1R,2R)-2-({[1-(quino-lin-6-yl-methyl)-1H-[1,2,3]tri-azolo[4,5-b]pyra-zin-6-yl]ami-no}methyl)cyclo-propyl]methanol]",40
8,"Cc1c(CNc2cnc3nnn(Cc4ccc5ncccc5c4)c3n2)cnn1C [Example 128, N-[(15-di-methyl-1H-pyra-zol-4-yl)meth-yl]-1-(quino-lin-6-yl-methyl)-1H-[1,2,3]tri-azolo[4,5-b]pyra-zin-6-amine]",28
9,"OC[C@H]1C[C@@H]1CNc1cnc2nnn(Cc3ccc4ncccc4c3)c2n1 [Example 129, [(1S,2S)-2-({[1-(quino-lin-6-yl-methyl)-1H-[1,2,3]tri-azolo[4,5-b]pyrazin-6-yl]ami-no}methyl)cyclo-propyl]methanol]",13
10,"O[C@@H]1COC[C@H]1Nc1cnc2nnn(Cc3ccc4ncccc4c3)c2n1 [Example 131, (3S4R)-4-{[1-(quino-lin-6-yl-methyl)-1H-[123]tri-azolo[45-b]pyra-zin-6-yl]ami-no}tetrahydro-furan-3-ol]",54
11,"CCOCC(O)CNc1cnc2nnn(Cc3ccc4ncccc4c3)c2n1 (centres unmarked) [Example 132, 1-ethoxy-3-{[1-(quino-lin-6-yl-methyl)-1H-[123]tri-azolo[45-b]pyra-zin-6-yl]ami-no}propan-2-ol]",8
12,"NCCNc1cnc2nnn(Cc3ccc4ncccc4c3)c2n1 [Example 137, N-[1-(quinolin-6-yl-methyl)-1H-[1,2,3]tri-azolo[4,5-b]pyra-zin-6-yl]eth-ane-1,2-diamine]",27
13,"CC(C)(CO)Nc1cnc2nnn(Cc3ccc4ncccc4c3)c2n1 [Example 139, 2-methyl-2-{[1-(quino-lin-6-yl-methyl)-1H-[1,2,3]tri-azolo[4,5-b]pyra-zin-6-yl]ami-no}propan-1-ol]",21
14,"NC(=O)CNc1cnc2nnn(Cc3ccc4ncccc4c3)c2n1 [Example 140, N~2~-[1-(quino-lin-6-yl-methyl)-1H-[1,2,3]tri-azolo[4,5-b]pyra-zin-6-yl]glycinamide]",47
15,"CC(C)(N)CNc1cnc2nnn(Cc3ccc4ncccc4c3)c2n1 [Example 141, 2-methyl-N~1~-[1-(quino-lin-6-yl-methyl)-1H-[1,2,3]tri-azolo[4,5-b]pyra-zin-6-yl]pro-pane-1,2-diamine]",6
16,"FC(F)CNc1cnc2nnn(Cc3ccc4ncccc4c3)c2n1 [Example 144, N-(2,2-di-fluoroethyl)-1-(quino-lin-6-yl-methyl)-1H-[1,2,3]tri-azolo[4,5-b]pyra-zin-6-amine]",3
17,"Fc1cc2ncccc2cc1Cn1nnc2ncc(NC3CCOC3)nc21 (centres unmarked) [Example 152, 1-[(7-fluoro-quinolin-6-yl)meth-yl]-N-(tetra-hydrofuran-3-yl)-1H-[1,2,3]tri-azolo[4,5-b]pyra-zin-6-amine]",1

# Other lines, results leading:
row,Ki [nM],Compound
1,40,"C[C@@H](O)CNc1cnc2nnn(Cc3ccc4ncccc4c3)c2n1 [Example 114, (2R)-1-{[1-(quino-lin-6-yl-methyl)-1H-[1,2,3]tri-azolo[4,5-b]pyra-zin-6-yl]ami-no}propan-2-ol]"
2,10,"CC[C@H](CO)Nc1cnc2nnn(Cc3ccc4ncccc4c3)c2n1 [Example 116, (2R)-2-{[1-(quino-lin-6-yl-methyl)-1H-[1,2,3]tri-azolo[4,5-b]pyra-zin-6-yl]ami-no}butan-1-ol]"
3,11,"C[C@H](O)CNc1cnc2nnn(Cc3ccc4ncccc4c3)c2n1 [Example 117, (2S)-1-{[1-(quino-lin-6-yl-methyl)-1H-[1,2,3]tri-azolo[4,5-b]pyra-zin-6-yl]ami-no}propan-2-ol]"
4,41,"C[C@@H](CO)Nc1cnc2nnn(Cc3ccc4ncccc4c3)c2n1 [Example 118, (2S)-2-{[1-(quino-lin-6-yl-methyl)-1H-[1,2,3]tri-azolo[4,5-b]pyra-zin-6-yl]ami-no}propan-1-ol]"
5,8,"c1cnc2ccc(Cn3nnc4ncc(NC5CCOC5)nc43)cc2c1 (centres unmarked) [Example 123, 1-(quinolin-6-yl-methyl)-N-(tetra-hydrofuran-3-yl)-1H-[1,2,3]tri-azolo[4,5-b]pyra-zin-6-amine]"
6,16,"CC(=O)N1CC[C@@H](Nc2cnc3nnn(Cc4ccc5ncccc5c4)c3n2)C1 [Example 126, N-[(3R)-1-acetyl-pyrrolidin-3-yl]-1-(quino-lin-6-yl-methyl)-1H-[1,2,3]tri-azolo[4,5-b]pyra-zin-6-amine]"
7,7,"CC1(CNc2cnc3nnn(Cc4ccc5ncccc5c4)c3n2)COC1 [Example 130, N-[(3-methyl-oxetan-3-yl)meth-yl]-1-(quino-lin-6-yl-methyl)-1H-[1,2,3]tri-azolo[4,5-b]pyra-zin-6-amine]"
8,51,"CC(C)(C)OC(=O)NC[C@H]1CCN(c2cnc3nnn(Cc4ccc5ncccc5c4)c3n2)C1 [Example 133, tert-butyl ({(3R)-1-[1-(quino-lin-6-yl-methyl)-1H-[1,2,3]tri-azolo[4,5-b]pyra-zin-6-yl]pyrro-lidin-3-yl}meth-yl)carbamate]"
9,7,"CN[C@@H]1CCN(c2cnc3nnn(Cc4ccc5ncccc5c4)c3n2)C1 [Example 134, (3R)-N-methyl-1-[1-(quino-lin-6-yl-methyl)-1H-[1,2,3]tri-azolo[4,5-b]pyra-zin-6-yl]pyrro-lidin-3-amine]"
10,35,"CNC1CCN(c2cnc3nnn(Cc4ccc5ncccc5c4)c3n2)CC1 [Example 135, N-methyl-1-[1-(quino-lin-6-yl-methyl)-1H-[1,2,3]tri-azolo[4,5-b]pyra-zin-6-yl]pipe-ridin-4-amine]"
11,30,"NC[C@H]1CCN(c2cnc3nnn(Cc4ccc5ncccc5c4)c3n2)C1 [Example 136, 1-[(3R)-1-[1-(quino-lin-6-yl-methyl)-1H-[1,2,3]tri-azolo[4,5-b]pyra-zin-6-yl]pyrro-lidin-3-yl}methanamine]"
12,49,"c1cnc2ccc(Cn3nnc4ncc(OC5CCOCC5)nc43)cc2c1 [Example 142, 6-{[6-(tetra-hydro-2H-py-ran-4-yloxy)-1H-[1,2,3]tri-azolo[4,5-b]pyra-zin-1-yl]meth-yl}quinoline]"
13,9,"c1cnc2ccc(Cn3nnc4ncc(NC5CCOCC5)nc43)cc2c1 [Example 143, 1-(quinolin-6-yl-methyl)-N-(tetra-hydro-2H-py-ran-4-yl)-1H-[1,2,3]tri-azolo[4,5-b]py-razin-6-amine]"
14,5,"c1cnc2ccc(Cn3nnc4ncc(NC5CCOC5)nc43)cc2c1 (centres unmarked) [Example 145, 1-(quinolin-6-yl-methyl)-N-(tetra-hydrofuran-3-yl)-1H-[1,2,3]tri-azolo[4,5-b]pyra-zin-6-amine]"
15,7,"c1cnc2ccc(Cn3nnc4ncc(NC5CCOC5)nc43)cc2c1 (centres unmarked) [Example 146, 1-(quinolin-6-yl-methyl)-N-(tetra-hydrofuran-3-yl)-1H-[1,2,3]triazolo[4,5-b]pyra-zin-6-amine]"
16,34,"FC1CCN(C2CCN(c3cnc4nnn(Cc5ccc6ncccc6c5)c4n3)C2)CC1 (centres unmarked) [Example 147, 6-({6-[3-(4-fluoro-piperidin-1-yl)pyrro-lidin-1-yl]-1H-[1,2,3]tri-azolo[4,5-b]pyra-zin-1-yl}meth-yl)quinoline]"
17,15,"FC1(F)CCN(C2CCN(c3cnc4nnn(Cc5ccc6ncccc6c5)c4n3)C2)C1 (centres unmarked) [Example 149, 6-{[6-(3,3-di-fluoro-1,3′-bi-pyrrolidin-1′-yl)-1H-[1,2,3]tri-azolo[4,5-b]pyra-zin-1-yl]meth-yl}quinoline]"
18,20,"OC1(C(F)(F)F)CCN([C@@H]2CCN(c3cnc4nnn(Cc5ccc6ncccc6c5)c4n3)C2)CC1 [Example 151, 1-{(3R)-1-[1-(quino-lin-6-yl-methyl)-1H-[1,2,3]tri-azolo[4,5-b]pyra-zin-6-yl]pyrro-lidin-3-yl}-4-(tri-fluoromethyl)pipe-ridin-4-ol]"
19,15,"c1cnc2ccc(Cn3nnc4ncc(N5CC[C@@H](N6CCOCC6)C5)nc43)cc2c1 [Example 153, 6-({6-[(3R)-3-morpho-lin-4-ylpyrro-lidin-1-yl]-1H-[1,2,3]tri-azolo[4,5-b]pyra-zin-1-yl}meth-yl)quinoline]"
20,39,"O=C1CCN(c2cnc3nnn(Cc4ccc5ncccc5c4)c3n2)C1 [Example 154, 1-[1-(quinolin-6-yl-methyl)-1H-[1,2,3]tri-azolo[4,5-b]pyra-zin-6-yl]pyrro-lidin-3-one]"
21,43,"CNCC1(O)CCN(c2cnc3nnn(Cc4ccc5ncccc5c4)c3n2)C1 (centres unmarked) [Example 155, 3-[(meth-ylamino)meth-yl]-1-[1-(quino-lin-6-yl-methyl)-1H-[1,2,3]tri-azolo[4,5-b]pyra-zin-6-yl]pyrro-lidin-3-ol]"
